Measured values as given in PubChem BioAssay AID248 (DTP/NCI, 2004).
Values joined by “and” are separate entries in the source; they are usually repeats but may differ in a detail not shown here. Equal entries are not always repeated. Inconclusive results and toxic doses are left out. No stated cut-off is given here; in the data, active means T/C of 150% or more; inactive means T/C below 125%.

Test system: L1210 leukemia ip in BDF1 mice, survival T/C
Assay: NCI In Vivo Anticancer Drug Screen. Data for tumor model L1210 Leukemia (intraperitoneal) in B6D2F1 (BDF1) mice
Conditions: endpoint: mean survival time, higher = longer survival
Method in brief: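 Mice bearing the transplanted tumor received compound or vehicle. Survival of the treated group was divided by that of the vehicle-treated control group to give the ratio.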

[1] = dose: 100.0 mg/kg/injection, schedule: Q04DX003 (ip), vehicle: saline
[2] = dose: 100.0 mg/kg/injection, schedule: Q04DX003 (ip), vehicle: Klucel (hydroxypropylcellulose) (HPC)
[3] = dose: 200.0 mg/kg/injection, schedule: Q04DX003 (ip), vehicle: Klucel (hydroxypropylcellulose) (HPC)
[4] = dose: 100.0 mg/kg/injection, schedule: Q01DX009 (ip), vehicle: Klucel (hydroxypropylcellulose) (HPC)
[5] = dose: 200.0 mg/kg/injection, schedule: Q01DX009 (ip), vehicle: Klucel (hydroxypropylcellulose) (HPC)
[6] = dose: 100.0 mg/kg/injection, schedule: Q01DX001 (ip), vehicle: saline
[7] = dose: 200.0 mg/kg/injection, schedule: Q01DX001 (ip), vehicle: saline
[8] = dose: 400.0 mg/kg/injection, schedule: Q01DX001 (ip), vehicle: saline
[9] = dose: 100.0 mg/kg/injection, schedule: Q01DX009 (ip), vehicle: saline with Tween-80
[10] = dose: 200.0 mg/kg/injection, schedule: Q01DX009 (ip), vehicle: saline with Tween-80

Measured: T/C

Cc1nc(-c2ccc(N=Cc3ccc(N(CCOS(C)(=O)=O)CCOS(C)(=O)=O)cc3C)cc2)c(C)s1
inactive: dose: 5.0 mg/kg/injection, schedule: Q01DX009 (ip), vehicle: Klucel (hydroxypropylcellulose) (HPC) 120 % of control | dose: 10.0 mg/kg/injection, schedule: Q01DX009 (ip), vehicle: Klucel (hydroxypropylcellulose) (HPC) 120 % of control | dose: 20.0 mg/kg/injection, schedule: Q01DX001 (ip), vehicle: Klucel (hydroxypropylcellulose) (HPC) 121 % of control | dose: 26.6 mg/kg/injection, schedule: Q01DX001 (ip), vehicle: Klucel (hydroxypropylcellulose) (HPC) 108 % of control | dose: 40.0 mg/kg/injection, schedule: Q01DX001 (ip), vehicle: Klucel (hydroxypropylcellulose) (HPC) 119 % of control | dose: 60.0 mg/kg/injection, schedule: Q01DX001 (ip), vehicle: Klucel (hydroxypropylcellulose) (HPC) 111 % of control

O=c1ccn2c(n1)OC1C(O)C(CO)OC12 (stereo not given)
inactive: dose: 100.0 mg/kg/injection, schedule: Q01DX005 (ip), vehicle: saline 103 % of control | dose: 100.0 mg/kg/injection, schedule: Q01DX009 (ip), vehicle: saline 97 % of control | dose: 200.0 mg/kg/injection, schedule: Q01DX005 (ip), vehicle: saline 111 % of control | dose: 200.0 mg/kg/injection, schedule: Q01DX009 (ip), vehicle: saline 109 % of control | dose: 400.0 mg/kg/injection, schedule: Q01DX009 (ip), vehicle: saline 101 % of control

Oc1ccccc1C=NCCN1CC1.Oc1ccccc1C=NCCN1CC1.[Ni+2]
inactive: dose: 12.5 mg/kg/injection, schedule: Q01DX009 (ip), vehicle: saline with Tween-80 88 % of control | dose: 25.0 mg/kg/injection, schedule: Q01DX009 (ip), vehicle: saline with Tween-80 96 % of control | [1] 98 % of control

O=C(O)c1cc(-c2ccccc2)nc2c([N+](=O)[O-])cccc12
inactive: dose: 75.0 mg/kg/injection, schedule: Q01DX001 (ip), vehicle: acetone 95 % of control | dose: 150.0 mg/kg/injection, schedule: Q01DX001 (ip), vehicle: acetone 92 % of control | dose: 300.0 mg/kg/injection, schedule: Q01DX001 (ip), vehicle: acetone 108 % of control

O=[N+]([O-])c1cc(S(=O)(=O)F)ccc1S
inactive: [2] 102 % of control | [3] 100 % of control

CC(C)=CCNC(=O)NS(=O)(=O)c1ccc(C)cc1
inactive: dose: 50.0 mg/kg/injection, schedule: Q04DX002 (ip), vehicle: Klucel (hydroxypropylcellulose) (HPC) 104 % of control | [4] 100 % of control | dose: 100.0 mg/kg/injection, schedule: Q04DX002 (ip), vehicle: Klucel (hydroxypropylcellulose) (HPC) 89 % of control | [5] 107 % of control | dose: 200.0 mg/kg/injection, schedule: Q04DX002 (ip), vehicle: Klucel (hydroxypropylcellulose) (HPC) 93 % of control | dose: 400.0 mg/kg/injection, schedule: Q01DX009 (ip), vehicle: Klucel (hydroxypropylcellulose) (HPC) 96 % of control

CCCCCCSc1ccc2c(cc1=O)C(NC(C)=O)CCc1cc(OC)c(OC)c(OC)c1-2 (stereo not given)
inactive: dose: 12.5 mg/kg/injection, schedule: Q04DX002 (ip), vehicle: saline 95 % of control | dose: 25.0 mg/kg/injection, schedule: Q04DX002 (ip), vehicle: saline 95 % of control | dose: 50.0 mg/kg/injection, schedule: Q04DX002 (ip), vehicle: saline 104 % of control

CCC(C)Nc1ccccc1 (stereo not given)
inactive: dose: 50.0 mg/kg/injection, schedule: Q01DX009 (ip), vehicle: Klucel (hydroxypropylcellulose) (HPC) 102 % of control and 104 % of control | dose: 50.0 mg/kg/injection, schedule: Q04DX003 (ip), vehicle: Klucel (hydroxypropylcellulose) (HPC) 101 % of control | [4] 102 % of control and 103 % of control | [2] 101 % of control | [5] 94 % of control and 87 % of control | [3] 97 % of control

CC(C)c1nc2c(c(=O)n(C)c(=O)n2C)n1C
inactive: dose: 50.0 mg/kg/injection, schedule: Q01DX001 (ip), vehicle: saline 102 % of control | [6] 96 % of control | [7] 96 % of control | [8] 108 % of control

C=CS(=O)(=O)CCCC
inactive: [9] 97 % of control | [10] 101 % of control

CCOc1ccn(C2OC(COC(C)=O)C(OC(C)=O)C(OC(C)=O)C2Nc2ccc([N+](=O)[O-])cc2[N+](=O)[O-])c(=O)n1 (stereo not given)
inactive: [6] 103 % of control | [7] 100 % of control | [8] 97 % of control

NS(=O)(=O)c1ccc(NC(=O)Nc2cccc3ccccc23)cc1
inactive: dose: 100.0 mg/kg/injection, schedule: Q01DX001 (ip), vehicle: saline with Tween-80 91 % of control | [9] 101 % of control and 108 % of control | dose: 100.0 mg/kg/injection, schedule: Q04DX002 (ip), vehicle: saline with Tween-80 95 % of control and 100 % of control | dose: 100.0 mg/kg/injection, schedule: Q04DX003 (ip), vehicle: saline with Tween-80 105 % of control | dose: 200.0 mg/kg/injection, schedule: Q01DX001 (ip), vehicle: saline with Tween-80 87 % of control | [10] 93 % of control and 100 % of control | dose: 200.0 mg/kg/injection, schedule: Q04DX002 (ip), vehicle: saline with Tween-80 98 % of control and 100 % of control | dose: 200.0 mg/kg/injection, schedule: Q04DX003 (ip), vehicle: saline with Tween-80 103 % of control | dose: 400.0 mg/kg/injection, schedule: Q01DX001 (ip), vehicle: saline with Tween-80 94 % of control | dose: 400.0 mg/kg/injection, schedule: Q01DX009 (ip), vehicle: saline with Tween-80 96 % of control and 105 % of control | dose: 400.0 mg/kg/injection, schedule: Q04DX002 (ip), vehicle: saline with Tween-80 93 % of control and 96 % of control | dose: 400.0 mg/kg/injection, schedule: Q04DX003 (ip), vehicle: saline with Tween-80 108 % of control

O=c1[nH]nc(CC(Br)c2ccccc2)o1 (stereo not given)
inactive: [6] 91 % of control | [1] 103 % of control | [7] 90 % of control | dose: 200.0 mg/kg/injection, schedule: Q04DX003 (ip), vehicle: saline 93 % of control | [8] 99 % of control | dose: 400.0 mg/kg/injection, schedule: Q04DX003 (ip), vehicle: saline 105 % of control

CC1(C)C(=NNc2ccccc2)C(C)(C)C1=NNc1ccccc1
inactive: dose: 25.0 mg/kg/injection, schedule: Q01DX009 (ip), vehicle: Klucel (hydroxypropylcellulose) (HPC) 93 % of control | [4] 93 % of control and 88 % of control | [2] 97 % of control | [3] 96 % of control | dose: 400.0 mg/kg/injection, schedule: Q04DX003 (ip), vehicle: Klucel (hydroxypropylcellulose) (HPC) 97 % of control

CC(=O)OCCN(C)C
inactive: dose: 75.0 mg/kg/injection, schedule: Q01DX009 (ip), vehicle: saline 104 % of control | dose: 100.0 mg/kg/injection, schedule: Q04DX002 (ip), vehicle: saline 100 % of control | dose: 150.0 mg/kg/injection, schedule: Q01DX009 (ip), vehicle: saline 101 % of control | dose: 200.0 mg/kg/injection, schedule: Q04DX002 (ip), vehicle: saline 110 % of control | dose: 300.0 mg/kg/injection, schedule: Q01DX009 (ip), vehicle: saline 101 % of control | dose: 400.0 mg/kg/injection, schedule: Q04DX002 (ip), vehicle: saline 113 % of control

Nc1nc(SCc2ccccc2)c2ncn(C3CCCC3)c2n1
inactive: dose: 100.0 mg/kg/injection, schedule: Q01DX001 (ip), vehicle: carboxymethylcellulose (CMC) 95 % of control | dose: 200.0 mg/kg/injection, schedule: Q01DX001 (ip), vehicle: carboxymethylcellulose (CMC) 95 % of control | dose: 400.0 mg/kg/injection, schedule: Q01DX001 (ip), vehicle: carboxymethylcellulose (CMC) 92 % of control | dose: 700.0 mg/kg/injection, schedule: Q01DX015 (ip), vehicle: carboxymethylcellulose (CMC) 101 % of control | dose: 800.0 mg/kg/injection, schedule: Q01DX015 (ip), vehicle: carboxymethylcellulose (CMC) 101 % of control

CCCCN(C)N=Nc1ccc(S(N)(=O)=O)cc1
inactive: dose: 30.0 mg/kg/injection, schedule: Q01DX Z (ip), vehicle: carboxymethylcellulose (CMC) 92 % of control | dose: 60.0 mg/kg/injection, schedule: Q01DX Z (ip), vehicle: carboxymethylcellulose (CMC) 92 % of control | dose: 90.0 mg/kg/injection, schedule: Q01DX Z (ip), vehicle: carboxymethylcellulose (CMC) 105 % of control
